# Structures can show the parent of a compound that is named as a salt.
# What was measured:
# [1] = tested on: PBM cells; test: Cytotoxicity in uninfected human PBM cells; assay type: cell-based
# Experimental: (§1) Antiviral and cytotoxicity assays: Anti-HIV-1 activity of the compounds is determined in human peripheral blood mononuclear (PBM) cells as described previously (Schinazi, […].; Cannon, D.; Mathis, R.; Lloyd, R. M. Jr.; Peck, […].; St. Clair, M.; Wilson, J.; Furman, P. A.; Painter, G.; Choi, […]. Antimicrob. Agents Chemother. 1992, 36, 2423; Schinazi, […].; Cannon, D.; Xie, […].; Smith, G.; Hahn, E. Antimicrob. Agents Chemother. 1990, 34, 1061). Stock solutions (20-40 mM) of the compounds were prepared in sterile DMSO and then diluted to the desired concentration in complete medium. […] Cells are infected with the prototype HIV-1LAI at a multiplicity of infection of 0.01. Virus obtained from the cell supernatant are quantitated on day 6 after infection by a reverse transcriptase assay using poly(rA)n.oligo(dT)12-18 as template-primer. […] The toxicity of the compounds can be assessed in human PBM, CEM, and Vero cells. The antiviral EC50 and cytotoxicity IC50 is obtained from the concentration-response curve using the median effective method described by Chou and Talalay (Adv. Enzyme Regul. 1984, 22, 27). Mitogen stimulated uninfected human PBM cells (3.8×10^5 cells/ml) can be cultured in the presence and absence of drug under similar conditions as those used for the antiviral assay described above. The cells are counted after 6 days using a hemacytometer and the trypan blue exclusion method, as described by Schinazi et al., Antimicrobial Agents and Chemotherapy, 22(3), 499 (1982).
# [2] = tested on: Vero cells; test: Cytotoxicity in Vero cells; assay type: cell-based
# Experimental: (§2) Antiviral and cytotoxicity assays: Anti-HIV-1 activity of the compounds is determined in human peripheral blood mononuclear (PBM) cells as described previously (Schinazi, […].; Cannon, D.; Mathis, R.; Lloyd, R. M. Jr.; Peck, […].; St. Clair, M.; Wilson, J.; Furman, P. A.; Painter, G.; Choi, […]. Antimicrob. Agents Chemother. 1992, 36, 2423; Schinazi, […].; Cannon, D.; Xie, […].; Smith, G.; Hahn, E. Antimicrob. Agents Chemother. 1990, 34, 1061). Stock solutions (20-40 mM) of the compounds were prepared in sterile DMSO and then diluted to the desired concentration in complete medium. […] Cells are infected with the prototype HIV-1LAI at a multiplicity of infection of 0.01. Virus obtained from the cell supernatant are quantitated on day 6 after infection by a reverse transcriptase assay using poly(rA)n.oligo(dT)12-18 as template-primer. The DMSO present in the diluted solution (<0.1%) should have no effect on the virus yield. The toxicity of the compounds can be assessed in human PBM, CEM, and Vero cells. The antiviral EC50 and cytotoxicity IC50 is obtained from the concentration-response curve using the median effective method described by Chou and Talalay (Adv. Enzyme Regul. 1984, 22, 27).
# [3] = tested on: CEM cells; test: Cytotoxicity in CEM cells; assay type: cell-based, human
# Experimental: (§3) Antiviral and cytotoxicity assays: Anti-HIV-1 activity of the compounds is determined in human peripheral blood mononuclear (PBM) cells as described previously (Schinazi, R. F.; McMillan, A.; Cannon, D.; Mathis, R.; Lloyd, R. M. Jr.; Peck, A.; Sommadossi, J.-P.; St. Clair, M.; Wilson, J.; Furman, P. A.; Painter, G.; Choi, W.-B.; Liotta, D. C. Antimicrob. Agents Chemother. 1992, 36, 2423; Schinazi, R. F.; Sommadossi, J.-P.; Saalmann, V.; Cannon, D.; Xie, M.-Y.; Hart, G.; Smith, G.; Hahn, E. Antimicrob. Agents Chemother. 1990, 34, 1061). Stock solutions (20-40 mM) of the compounds were prepared in sterile DMSO and then diluted to the desired concentration in complete medium. […] Cells are infected with the prototype HIV-1LAI at a multiplicity of infection of 0.01. Virus obtained from the cell supernatant are quantitated on day 6 after infection by a reverse transcriptase assay using poly(rA)n.oligo(dT)12-18 as template-primer. The DMSO present in the diluted solution (<0.1%) should have no effect on the virus yield. The toxicity of the compounds can be assessed in human PBM, CEM, and Vero cells. The antiviral EC50 and cytotoxicity IC50 is obtained from the concentration-response curve using the median effective method described by Chou and Talalay (Adv. Enzyme Regul. 1984, 22, 27).
# The extent of anticancer activity can be easily assessed by assaying the compound according to the procedure below in a CEM cell or other tumor cell line assay. CEM cells are human lymphoma cells (a T-lymphoblastoid cell line that can be obtained from ATCC, Rockville, Md.). […] The toxicity is measured as IC50 micromolar). […] Drug solutions, including cycloheximide as a positive control, are plated in triplicate in 50 μl growth medium at 2 times the final concentration and allowed to equilibrate at 37° C. in a 5% CO2 incubator. Log phase cells are added in 50 μl growth medium to a final concentration of 2.5×10^3 (CEM and SK-MEL-28), 5×10^3 (MMAN, MDA-MB-435s, SKMES-1, DU-145, LNCap), or 1×10^4 (PC-3, MCF-7) cells/well and incubated for 3 (DU-145, PC-3, MMAN), 4 (MCF-7, SK-MEL-28, CEM), or 5 (SK-MES-1, MDA-MB-435s, LNCaP) days at 37° C. under a 5% CO2 air atmosphere. Control wells include media alone (blank) and cells plus media without drug. After growth period, 15 μl of Cell Titer 96 kit assay dye solution (Promega, Madison, Wis.) are added to each well and the plates are incubated 8 hr at 37° C. in a 5% CO2 incubator. Promega Cell Titer 96 kit assay stop solution is added to each well and incubated 4-8 hr in the incubator. Absorbance is read at 570 nm, blanking on the medium-only wells using a Biotek Biokinetics plate reader (Biotek, Winooski, Vt.). Average percent inhibition of growth compared to the untreated control is calculated. IC50, IC90, slope and r value are calculated by the method of Chou and Talalay. Chou T-C, Talalay P. Quantitative analysis of dose-effect relationships: The combined effects of multiple drugs or enzyme inhibitors. Adv Enzyme Regul 1984, 22:27-55.
# [4] = tested on: HIV-1 (strain LAV); test: Anti-HIV-1 activity in PHA-stimulated human PBM cells (virus quantitated by reverse transcriptase assay, day 6); assay type: cell-based; details: HIV-1 in human PBM cells
# Experimental: The ability of nucleosides to inhibit HIV can be measured by various experimental techniques. One technique, described in detail below, measures the inhibition of viral replication in phytohemagglutinin (PHA) stimulated human peripheral blood mononuclear (PBM) cells infected with HIV-1 (strain LAV). The amount of virus produced is determined by measuring the virus-coded reverse transcriptase enzyme. The amount of enzyme produced is proportional to the amount of virus produced.
# as §3
# Three-day-old phytohemagglutinin-stimulated PBM cells 10^6 cells/ml) from hepatitis B and HIV-1 seronegative healthy donors are infected with HIV-1 (strain LAV) at a concentration of about 100 times the 50% tissue culture infectious dose (TICD 50) per ml and cultured in the presence and absence of various concentrations of antiviral compounds.
# Approximately one hour after infection, the medium, with the compound to be tested (2 times the final concentration in medium) or without compound, is added to the flasks (5 ml; final volume 10 ml).
# The cells are exposed to the virus (about 2×10^5 dpm/ml, as determined by reverse transcriptase assay) and then placed in a CO2 incubator. HIV-1 (strain LAV) is obtained from the Center for Disease Control, Atlanta, Ga. The methods used for culturing the PBM cells, harvesting the virus and determining the reverse transcriptase activity are those described by McDougal et al. (J. Immun. Meth. 76, 171-183, 1985) and Spiral et al. (J. Clin. Meth. 25, 97-99, 1987), except that flngizone was not included in the medium (see Schinazi, et al., Antimicrob. Agents Chemother. 32, 1784-1787 (1988); Id., 34:1061-1067 (1990)).
# On day 6, the cells and supernatant are transferred to a 15 ml tube and centrifuged at about 900 g for 10 minutes. Five ml of supernatant are removed and the virus concentrated by centrifugation at 40,000 rpm for 30 minutes (Beckman 70.1 Ti rotor). The solubilized virus pellet is processed for determination of the levels of reverse transcriptase. Results are expressed in dpm/ml of sampled supernatant. Virus from smaller volumes of supernatant (1 ml) can also be concentrated by centrifugation prior to solubilization and determination of reverse transcriptase levels.
# [5] = Cytotoxicity in uninfected human PBM cells; assay type: cell-based; details: human, mitogen-stimulated uninfected human PBM cells; PMC Cells
# Experimental: as §1
# [6] = Cytotoxicity in Vero cells; assay type: cell-based; details: African green monkey, Vero cells
# Experimental: as §2
# [7] = biological target: HIV-1 heterodimer p66/51 reverse transcriptase (Human immunodeficiency virus type 1 group M subtype B, UniProt P04585); test: HIV-1 reverse transcriptase extension assay, r(I)n.(dC)12-18 template-primer
# Experimental: Extension assays were performed using a r(I)n.(dC)12-18 homopolymer template-primer (Pharmacia, Piscataway, N.J.) and the HIV-1 heterodimer p66/51 reverse transcriptase (RT, Biotechnology General, Rehovat, Israel). The standard reaction mixture (100 μl) contained 100 mM Tris hydrochloride (pH 8.0), 50 mM KCl, 2 mM MgCl2, 0.05 units/ml r(I)n.(dC)12-18, 5 mM DTT, 100 μg/ml Bovine Serum Albumin, and 1 μM ^3H-dCTP (23 Ci/mmol). 3TCTP (0.001-50 μM) was the positive control. Compounds were incubated 1 hr at 37° C. in the reaction mixture with 1 unit HIV-1 RT. The reaction was stopped with the addition of an equal volume of cold 10% TCA/0.05% sodium pyrophosphate and incubated 30 minutes at 4° C. The precipitated nucleic acids were harvested onto fiberglass filter paper using a Packard manual harvester (Meriden, Conn.). The radiolabel uptake in counts per minute (cpm) was determined using a Packard 9600 Direct Beta counter.
# [8] = Human immunodeficiency virus 1, PBMC
EC50 [4],EC90 [4],"EC50 [4, 8]","EC90 [4, 8]",Structure (SMILES),IC50 [1],IC50 [2],IC50 [3],IC50 at 6 days [5],IC50 [6],EC50 [7]
1.5 µM,15.1 µM,,,"Nc1ncnc2c1ncn2[C@H]1O[C@@H](CO)C=C1F [Compound 335, 9-(2,3-dideoxy-2-fluoro-β-L-gycero-pent-2-enofuranosyl)adenine]",> 100 µM,> 100 µM,> 100 µM,,,
> 100 µM,> 100 µM,,,"Nc1ccn([C@@H]2O[C@@H](CO)C=C2F)c(=O)n1 [Compound 323, 1-(2,3-dideoxy-2-fluoro-α-L-gycero-pent-2-enofuranosyl)cytosine]",> 100 µM,> 100 µM,> 100 µM,,,
> 100 µM,> 100 µM,,,"Cc1cn([C@H]2O[C@@H](CO)C=C2F)c(=O)[nH]c1=O [Compound 318, 1-(2,3-Dideoxy-2-fluoro-(α,β)-L-gycero-pent-2-eno-furanosyl)thymine]",> 100 µM,> 100 µM,> 100 µM,,,
0.51 µM,4.3 µM,,,"Nc1ccn([C@H]2O[C@@H](CO)C=C2F)c(=O)n1 [Compound 322, 1-(2,3-dideoxy-2-fluoro-β-L-gycero-pent-2-enofuranosyl)cytosine]",> 100 µM,> 100 µM,> 100 µM,,,
,,0.004 µM,0.04 µM,"Cc1cn([C@H]2C[C@H](N=[N+]=[N-])[C@@H](CO)O2)c(=O)[nH]c1=O [AZT, 3′-azido-3′-deoxythymidine, reference compound]",,,,> 100 µM,29 µM,
47.6 µM,332 µM,,,"Nc1ncnc2c1ncn2[C@@H]1O[C@@H](CO)C=C1F [Compound 336, 9-(2,3-dideoxy-2-fluoro-α-L-gycero-pent-2-enofuranosyl)adenine]",> 100 µM,> 100 µM,> 100 µM,,,
,,,,"Nc1nc(=O)n(C2C=CC(COP(=O)(O)OP(=O)(O)OP(=O)(O)O)C2)cc1F (mixture of isomers) [(±)-carbocyclic-D4FC-TP, cis-(±)-Carbocyclic 2′,3′-didehydro-2′,3′-dideoxy-5-fluorocytidine 5′-triphosphate, triethylhydrogenammonium salt]",,,,,,400 nM
> 100 µM,> 100 µM,,,"O=c1ccn([C@H]2O[C@@H](CO)C=C2F)c(=O)[nH]1 [Compound 316, 1-(2,3-Dideoxy-2-fluoro-(α,β)-L-gycero-pent-2-eno-furanosyl)uracil]",> 100 µM,> 100 µM,> 100 µM,,,
> 100 µM,> 100 µM,,,"O=c1[nH]cnc2c1ncn2[C@@H]1O[C@@H](CO)C=C1F [Compound 338, 9-(2,3-dideoxy-2-fluoro-α-L-gycero-pent-2-enofuranosyl)hypoxanthine]",> 100 µM,,> 100 µM,,,
> 100 µM,> 100 µM,,,"O=c1[nH]cnc2c1ncn2[C@H]1O[C@@H](CO)C=C1F [Compound 337, 9-(2,3-dideoxy-2-fluoro-β-L-gycero-pent-2-enofuranosyl)hypoxanthine]",> 100 µM,> 100 µM,> 100 µM,,,
